Ten compounds from PubChem BioAssay (NCI) can be followed below.

Among the test systems are HCT-116 colon; IGROV1 ovarian; SF-539 CNS; HT29 colon; EKVX NSCLC; SK-MEL-28 melanoma; HCC-2998 colon; ACHN renal; KM12 colon; NCI-H23 lung.
Holding throughout (assay): growth of human tumour cells (NCI), 48 h

The structures appear in SMILES notation. Values joined by “and” are separate entries in the source; they are usually repeats but may differ in a detail not shown here. Equal values may be shown once.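 96-well plates; 48 h exposure; 5 concentrations. Endpoints by linear interpolation between flanking doses. Not reached: highest tested concentration assigned. At the GI50, growth is halved. TGI: total growth inhibition.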

As to `O=C1COc2c(CCNCCN(C(=O)CCNCCc3ccc(Cl)c(Cl)c3)C3CCCCC3)ccc(O)c2N1`, the GI50 in the experiment with HCT-116 colon is 14.6 µM; with IGROV1 ovarian, 15 µM; with SF-539 CNS, 15.1 µM; in the experiment on HT29 colon, 16.7 µM; in the experiment with EKVX NSCLC, 15.4 µM; with SK-MEL-28 melanoma, 14.8 µM. The GI50 in the experiment on HCC-2998 colon is 18.7 µM; in the experiment with ACHN renal, 15.2 µM; with KM12 colon it was 19 µM; in the experiment with NCI-H23 lung it was 18.1 µM. For the same compound, the TGI in the experiment with HCT-116 colon worked out at 28.4 µM; in the experiment on IGROV1 ovarian it was 30.1 µM; in the experiment on SF-539 CNS, 29.7 µM; in the experiment with HT29 colon, 33.8 µM; in the experiment on EKVX NSCLC it was 30 µM; with SK-MEL-28 melanoma, 29.3 µM. In addition, the TGI amounted to 35.1 µM in the experiment on HCC-2998 colon, 29.1 µM in the experiment on ACHN renal, 35.5 µM in the experiment on KM12 colon and 33.9 µM with NCI-H23 lung.
For `COc1ccc(C[C@H](N)C(=O)N[C@@H]2[C@@H](CO)OC(n3cnc4c(N(C)C)ncnc43)[C@@H]2O)cc1` (stereo partly specified), the GI50 with HCT-116 colon was 0.152 µM; in the experiment on IGROV1 ovarian it was 0.539 µM; with SF-539 CNS it was 0.435 µM; in the experiment with EKVX NSCLC it was 0.614 µM; in the experiment on SK-MEL-28 melanoma it was 0.479 µM; in the experiment with HCC-2998 colon, 0.651 µM. Also, the GI50 is 0.363 µM with KM12 colon and 0.553 µM in the experiment with NCI-H23 lung. In addition, the TGI worked out at 0.628 µM in the experiment with HCT-116 colon; 1.73 µM in the experiment with IGROV1 ovarian; 1.95 µM in the experiment on SF-539 CNS; 1.38 µM with HT29 colon; 2.55 µM in the experiment on EKVX NSCLC; 1.13 µM in the experiment with SK-MEL-28 melanoma. Moreover, the TGI in the experiment on HCC-2998 colon was 1.31 µM; with ACHN renal, 3.19 µM; with KM12 colon it was 1.08 µM; in the experiment on NCI-H23 lung, 1.82 µM.
For `Oc1ccc(/C=N/Nc2nnc(N/N=C/c3ccc(O)cc3O)c3ccccc23)c(O)c1`, the GI50 in the experiment on HCT-116 colon is 0.348 µM; in the experiment on IGROV1 ovarian, 0.493 µM; in the experiment with HT29 colon, 1.76 µM; in the experiment on EKVX NSCLC, 0.349 µM; in the experiment on SK-MEL-28 melanoma, 0.552 µM; with HCC-2998 colon, 0.446 µM. Also, the GI50 with ACHN renal is 0.358 µM; in the experiment with KM12 colon, 0.375 µM; with NCI-H23 lung, 0.707 µM. Further, the TGI in the experiment on HCT-116 colon is 2.16 µM; in the experiment on IGROV1 ovarian, 3.24 µM; with SF-539 CNS, 0.714 µM and 0.755 µM; in the experiment on HT29 colon, 7.2 µM; in the experiment on SK-MEL-28 melanoma, 5.26 µM; in the experiment with HCC-2998 colon it was 2.42 µM. Besides, the TGI is 0.422 µM and 3.94 µM in the experiment with ACHN renal; 0.8 µM and 1.54 µM in the experiment with KM12 colon; 2.77 µM with NCI-H23 lung.
`Cc1c2cc[n+](C)cc2c(C)c2c1[nH]c1ccc(Oc3ccccc3)cc12`: the TGI in the experiment on HCT-116 colon was above 100 µM; with IGROV1 ovarian, 33.5 µM and 24.5 µM; in the experiment with SF-539 CNS, 20.2 µM and 21 µM; in the experiment on HT29 colon, 21.2 µM and 29 µM; in the experiment with EKVX NSCLC, > 100 µM and 51.7 µM; in the experiment with SK-MEL-28 melanoma it was > 27.3 µM and 21.3 µM. The TGI with HCC-2998 colon was > 47.9 µM and 39.6 µM; in the experiment on ACHN renal, > 38.4 µM and 19 µM; with KM12 colon it was 18.8 µM and > 100 µM. In addition, the GI50 in the experiment on NCI-H23 lung is 1.73 µM.
Turning to `Cn1ncc2c(c1=O)Nc1ccccc1S2(=O)=O`, the TGI with HCT-116 colon was above 100 µM; with IGROV1 ovarian, above 100 µM; in the experiment with SF-539 CNS it was 49 µM; with HT29 colon, above 100 µM; with EKVX NSCLC, above 100 µM; in the experiment on SK-MEL-28 melanoma, above 100 µM. The TGI in the experiment on HCC-2998 colon, in the experiment on ACHN renal, with KM12 colon and with NCI-H23 lung was above 100 µM each time.
With `NC1=NN(c2ccccc2)C(=O)C1/C(=N\NC(=O)c1cc2ccccc2cc1O)C(=O)Nc1ccc(Cl)cc1` (stereo unspecified), the TGI in the experiment with HCT-116 colon was above 100 µM; in the experiment with IGROV1 ovarian it was 80.9 µM; in the experiment on SF-539 CNS, 69.3 µM; with HT29 colon, above 100 µM; in the experiment with EKVX NSCLC it was 62.9 µM; with SK-MEL-28 melanoma, above 100 µM. Moreover, the TGI in the experiment on HCC-2998 colon is above 100 µM; in the experiment on ACHN renal, above 100 µM; with KM12 colon it was above 100 µM; in the experiment with NCI-H23 lung, 77.3 µM.
For the compound `COc1cccc2c(Nc3ccc(C(=O)NCCN4CCNCC4)cc3)cc(-c3ccccc3)nc12`, the GI50 in the experiment with HCT-116 colon is 30.9 µM; in the experiment with IGROV1 ovarian, 32.1 µM; with SF-539 CNS it was 22.9 µM; in the experiment with HT29 colon, 20.7 µM; in the experiment on EKVX NSCLC it was above 100 µM; in the experiment with SK-MEL-28 melanoma it was 19 µM. The GI50 in the experiment on HCC-2998 colon was 49.2 µM; in the experiment on ACHN renal, 18.8 µM; in the experiment with KM12 colon it was 30.8 µM; with NCI-H23 lung, above 100 µM. Also, the TGI in the experiment on HCT-116 colon is above 100 µM; in the experiment with IGROV1 ovarian, above 100 µM; in the experiment on SF-539 CNS, 57 µM; in the experiment on HT29 colon, above 100 µM; in the experiment on EKVX NSCLC, above 100 µM; in the experiment on SK-MEL-28 melanoma, 64.7 µM. Further, the TGI is above 100 µM with HCC-2998 colon, 40.8 µM in the experiment with ACHN renal, above 100 µM in the experiment on KM12 colon and above 100 µM in the experiment with NCI-H23 lung.
Consider `CCCCc1c2c(nc3c1CC/C(=C\c1ccccc1)C3=O)CCCC2`, for which the TGI worked out at 16.1 µM with HCT-116 colon; 15.2 µM with IGROV1 ovarian; 4.71 µM in the experiment on SF-539 CNS; 4.75 µM in the experiment on HT29 colon; 24.9 µM in the experiment on EKVX NSCLC; 9.52 µM with SK-MEL-28 melanoma. Moreover, the TGI in the experiment on HCC-2998 colon came out at 8.34 µM; in the experiment with ACHN renal, 25.9 µM; in the experiment with KM12 colon it was 13.5 µM; with NCI-H23 lung it was 17.7 µM.
In the case of `O=NNc1nc(-c2ccccn2)nc2ccccc12`, the TGI was 16.5 µM in the experiment on HCT-116 colon; above 100 µM with IGROV1 ovarian; above 100 µM in the experiment on SF-539 CNS; 18.7 µM in the experiment with HT29 colon; above 100 µM in the experiment on EKVX NSCLC; above 100 µM with SK-MEL-28 melanoma. For the same compound, the TGI was 41 µM in the experiment with HCC-2998 colon, 42.5 µM with ACHN renal, above 100 µM with KM12 colon and above 100 µM in the experiment on NCI-H23 lung.
With `CCNc1nc(-c2ccc(Cl)c(OC)c2)c(-c2ccnc(NCCNS(=O)(=O)c3ccc(Cl)cc3)n2)s1`, the GI50 was 2.65 µM in the experiment with HCT-116 colon; 4.68 µM in the experiment with IGROV1 ovarian; 2.51 µM with SF-539 CNS; 2.92 µM with HT29 colon; 3.74 µM in the experiment on EKVX NSCLC; 3.33 µM with SK-MEL-28 melanoma. The GI50 is 4.97 µM in the experiment on HCC-2998 colon, 3.14 µM in the experiment on ACHN renal, 3.52 µM with KM12 colon and 3.5 µM in the experiment on NCI-H23 lung. Further, the TGI with HCT-116 colon was 6.25 µM; in the experiment with IGROV1 ovarian it was above 100 µM; in the experiment on SF-539 CNS it was 6.63 µM; with HT29 colon, 20.1 µM; in the experiment on EKVX NSCLC, above 100 µM; in the experiment with SK-MEL-28 melanoma, above 100 µM. Also, the TGI in the experiment on HCC-2998 colon, in the experiment on ACHN renal, with KM12 colon and in the experiment on NCI-H23 lung was above 100 µM throughout.
